Earlier results as cited in USRE35801E, “Prophylactic and therapeutic composition for circulatory disorders and method of treatment” (priority 1985, dated 1998).

How the values were obtained:
[1] = tested on: electroencephalogram under normal state; details: deemed to be a side action in clinic; cited from earlier work
[2] = tested on: lipid peroxidation by active oxygen; details: cited from earlier work
[3] = cited from earlier work
[4] = tested on: central nervous system; details: in vivo; cited from earlier work

Row | Structure (SMILES) | action against electroencephalogram under normal state [1] | inhibition of lipid peroxidation by active oxygen [2] | solubilizing in water [3] | central nervous system depressant activity [4]
1 | NC(=O)[C@@H]1CCCN1C(=O)[C@H](Cc1cnc[nH]1)NC(=O)[C@@H]1CCC(=O)N1 [TRH, L-pyrroglutamyl-L-histidyl-L-prolineamide] | exhibites an action | – | – | –
2 | COC1=C(OC)C(=O)C(CCCCCCCCCCO)=C(C)C1=O [idebenone] | – | can inhibit lipid peroxidation by active oxygen | difficulty in solubilizing in water | –
3 | CCN(CC)Cc1nccn1-c1ccc([N+](=O)[O-])cc1C(=O)c1ccccc1Cl [nizofenone] | – | can inhibit lipid peroxidation by active oxygen | – | potent central nervous system depressant activity
